In patent US20150258052A1, “METHODS OF USING FEXARAMINE AND AGENTS THAT INCREASE SYMPATHETIC NERVOUS SYSTEM ACTIVITY TO PROMOTE BROWNING OF WHITE ADIPOSE TISSUE” (Salk Institute for Biological Studies, priority 2014, published 2015):

Legend:
[1] = test system: FXR target gene expression; assay: FXR target gene expression (qPCR) in intestine, liver and kidney after acute PO or IP fexaramine; assay type: in vivo, mice
Description: FIGS. 1A-1C are a comparative expression chart and two bar charts, respectively, illustrating increased levels of FXR target gene expression in the intestine relative to expression in the liver and kidney. 8 week-old mice were treated with vehicle or fexaramine (100 mg/kg) via oral (PO) or intraperitoneal (IP) injection for three days (FIGS. 1A-1B) or five days (FIG. 1C).
FXR target gene expression was analyzed by qPCR. Gene expression was normalized against a vehicle-treated group.
Data represent the mean±SD. Statistical analysis was performed with the Student's t test. *p<0.05, **p<0.01.
FIG. 1F is a bar chart illustrating that orally delivered Fexaramine is intestinally-restricted. Mice received vehicle or Fexaramine (100 mg/kg) via per os (PO) or intraperitoneal (IP) injection for 5 days. Expression of the FXR target gene SHP after PO or IP injection in selected tissues is shown.
Upon exploration of the in vivo effects of fexaramine (Fex) administration, it was discovered that due to ineffectual absorption, oral (PO) and intraperitoneal (IP) drug delivery produced very different effects (FIGS. 1D and 1E).

DIO mice = assay: Chronic oral fexaramine in diet-induced obesity (DIO) mice: weight, adiposity, serum parameters, GTT, ITT; assay type: in vivo; details: for glucose tolerance (glucose tolerance test) / insulin sensitivity (insulin tolerance test): PO 5 weeks
Description: FIGS. 2A-2G are graphs illustrating the reduction of diet-induced obesity and improvement in metabolic homeostasis with fexaramine. Mice were fed a high fat diet (HFD) for 14 weeks and then administered daily oral injections of vehicle (open boxes) or fexaramine (100 mg/kg) (solid boxes) for 5 weeks with HFD. Data represent the mean±STD. Statistical analysis was performed with the Student's t test (*p<0.05, **p<0.01).
FIG. 2A is a line chart illustrating changes in body weight of mice fed a high fat diet (HFD) for 14 weeks and then administered daily oral injections of vehicle (open boxes) or fexaramine (100 mg/kg) (solid boxes) for 5 weeks with HFD. n=8 per group.
(§1) FIG. 4A is a line graph showing the effects of fexaramine at various dosage levels on the body weight of mice fed a HFD for 14 weeks and then administered daily oral injections of vehicle or fexaramine (10, 50 or 100 mg/kg) for 5 weeks with a HFD. Data represent the mean±STD. Statistical analysis was performed with the Student's t test (*p<0.05, **p<0.01).
FIG. 4B is a set of digital images showing histological analysis of the ileum and colon following treatment with fexaramine or vehicle. Mice were fed on HFD for 14 weeks, and then administered daily oral injections of vehicle or fexaramine (100 mg/kg) for 5 weeks with HFD.
as §1, with “4C” for “4A”, “glucose tolerance tests in” for “the effects of fexaramine at various dosage levels on the body weight of”, “with” for “with a”
The physiological effects of fexaramine in established obesity (diet-induced obesity, DIO) models were evaluated. C57BL/6J mice were fed a diet of 60% fat for 14 weeks and then treated PO with vehicle or fexaramine (100 mg/kg) for 5 weeks. […] Analyses of serum metabolic parameters including leptin, insulin, cholesterol, and resistin reflected that fexaramine-mediated weight gain resistance is accompanied by improved endocrine and metabolic profiles (FIGS. 2D and 4D).
Obesity and its metabolic complications are associated with chronic low-grade inflammation, reflected by elevated serum levels of inflammatory cytokines. […] Therefore, glucose tolerance tests (GTTs) and insulin tolerance tests (ITTs) were performed to determine if glucose homeostasis was improved in fexaramine-treated DIO mice.

[2] = test system: white adipose tissue (WAT); assay: Inflammation, lipolysis and browning of white adipose tissue in Fex-treated DIO mice; assay type: in vivo
Description: Mice were fed on HFD for 14 weeks and subsequently subjected to daily PO injection of vehicle or fexaramine (100 mg/kg) for 5 weeks with HFD. In the bar graphs, open bars are vehicle, solid bars of fexaramine, and data represent the mean±STD. Statistical analysis was performed with the Student's t test (*p<0.05, **p<0.01).
FIG. 12F is a bar chart showing serum glycerol levels in vehicle or fexaramine-treated mice. Isoproterenol (1 μg/kg) was injected at 0 minutes and free glycerol levels were measured at the indicated time points. Data represent the mean±STD. Statistical analysis was performed with the Student's t test (*p<0.05, **p<0.01).
Mice fed a HFD for 14 weeks were maintained on a HFD and treated with vehicle or fexaramine (100 mg/kg/day os for 5 week). (I) Changes in genes associated with the browning of adipose tissue and (J) oxygen consumption rate of the stromal vascular fraction (SVF) from inguinal fat (iWAT). Data represent the mean±SD. Statistical analysis was performed with the Student's t test. *p<0.05, **p<0.01.
FIG. 13 is a set of digital images of gel electrophoreses (Western blots) showing the level of expression of various proteins in gonadal white adipose tissue (gWAT). Mice fed a HFD for 14 weeks were maintained on a HFD and treated with vehicle or fexaramine (50 mg or 100 mg/kg/day os for 5 week).
FIG. 14 is a bar chart showing that fexaramine reduces brown adipose tissue (BAT) inflammation. Mice fed a HFD for 14 weeks were maintained on a HFD and treated with vehicle or fexaramine (100 mg/kg/day os for 5 weeks). Expression of inflammatory cytokines in BAT. Data represent the mean±SD. Statistical analysis was performed with the Student's t test. *p<0.05, **p<0.01.
During obesity, adipose tissue expands by hyperplastic and/or hypertrophic growth, is chronically inflamed, and produces inflammatory cytokines that ultimately contribute to systemic metabolic dysregulation. […] These noncanonical IκB kinases were recently shown to play crucial roles in energy expenditure as a consequence of adipose tissue inflammation upon diet-induced obesity (Reilly et al., Nat Med 19:313-321, 2013).
Brown adipose-driven adaptive thermogenesis is fueled by mitochondrial oxidation of free fatty acids (FFAs) released from triglyceride stores into the circulation, predominantly by the action of hormone-sensitive lipase (HSL).

[3] = PO, 100 mg/kg, listed as fexaramine

## COC(=O)/C=C/c1cccc(N(Cc2ccc(-c3ccc(N(C)C)cc3)cc2)C(=O)C2CCCCC2)c1 [Fex, fexaramine]
[1]; IP, 100 mg/kg for five days
  induction of FXR target gene SHP in intestine: robust induction
[1]; IP, 100 mg/kg, five days
  FXR target gene expression in liver, kidney and intestines: increases FXR target gene expression in the liver and kidney, in addition to the intestines
[1]; PO versus IP, 100 mg/kg for five days
  induction of SHP in liver and kidney: only seen in liver and kidney after IP treatment
[1]; PO, 100 mg/kg
  FXR target gene expression (IBABP, OSTα, FGF15) in intestine: induced multiple FXR target genes in the intestine
  FXR target gene expression in liver or kidney: failed to affect the expression of these genes in liver or kidney
[1]; PO, 100 mg/kg for five days
  induction of FXR target gene SHP in intestine: robust induction
[1]; [3]
  FXR target gene expression (IBABP, OSTα, FGF15) in intestine: substantially enhances FXR target gene expression in the intestine
  FXR target gene expression in liver or kidney: not in the liver or kidney
DIO mice; DIO mice, 100 mg/kg PO 5 weeks
  intestinal toxicity (histology of ileum and colon): no signs of intestinal toxicity
  overall fat mass (MRI): reduced overall fat mass
  serum levels of inflammatory cytokines TNFα, IL-1α, IL-1β, IL-17 and MCP-1: markedly decreased
  wet weights of subcutaneous (inguinal) and visceral (gonadal and mesenteric) adipose depots: significant reductions
DIO mice; DIO mice, 100 mg/kg PO 5 weeks, serum after 8 hours fasting
  glucose, insulin, leptin, cholesterol and resistin levels: reduced glucose, insulin, leptin, cholesterol, and resistin levels
DIO mice; DIO mice, 10, 50 or 100 mg/kg PO 5 weeks
  prevention of weight gain, dose dependence: dose-dependent manner
DIO mice; DIO mice, HFD 14 weeks then 100 mg/kg PO 5 weeks
  weight gain: prevented weight gain
DIO mice; DIO mice
  glucose tolerance (glucose tolerance test): dose-dependent improvements
  insulin sensitivity (insulin tolerance test): dose-dependent improvements
DIO mice; DIO mice, listed as fexaramine
  glucose tolerance (glucose tolerance test): improved glucose clearance
  insulin sensitivity (insulin tolerance test): improved insulin sensitivity
DIO mice; DIO mice, highest dose
  weight gain at the highest dose: almost completely abrogated
[2]; 100 mg/kg PO 5 weeks
  abundance of multi-locular, UCP1-expressing adipocytes in inguinal adipose tissue (immunohistochemistry): substantial increase
  expression of TNFα, MCP-1, IL-1α and macrophage marker F4/80 in visceral and brown adipose depots: reduced in visceral and brown adipose depots
[2]; 100 mg/kg/day 5 week
  expression of "brown fat-like" signature genes in inguinal adipose tissue: increased the expression
  respiratory capacity (oxygen consumption rate) of stromal vascular fraction from inguinal adipose tissue: increased respiratory capacity
[2]; Western blot
  S6K phosphorylation (mTORC1 pathway) in gonadal WAT: reduced S6K phosphorylation
  levels of IKK-ε and TANK-binding kinase 1 (TBK1) in gWAT: reduced levels
[2]; chronic Fex treatment
  HSL phosphorylation in adipose depots: pronounced increase
  serum catecholamine levels: increased serum catecholamine levels
  serum levels of free fatty acids: pronounced increase
  β3-adrenergic receptor expression in gonadal adipose tissue: increased
[2]; chronic Fex-treatment
  cross-sectional area of adipocytes in visceral depots (gonadal and mesenteric): markedly reduced
